Data taken from paper PMC4116505, “HER2-signaling pathway, JNK and ERKs kinases, and cancer stem-like cells are targets of Bozepinib” (Oncotarget, 2014).

Tests used:
HER2 [1] = target: T1, HER2 (Homo sapiens, UniProt P04626); experiment: 36-kinase panel, residual activity at […]; p-HER2 loss in SKBR-3 cells by western blot; assay type: biochemical
T1 construct: gene ERBB2

VEGFR-3 [2] = target: T2, VEGFR-3 (Homo sapiens, UniProt P35916); experiment: 36-kinase panel, residual activity at […]; assay type: biochemical
T2 construct: gene FLT4
T2 sequence (P35916 25-1363): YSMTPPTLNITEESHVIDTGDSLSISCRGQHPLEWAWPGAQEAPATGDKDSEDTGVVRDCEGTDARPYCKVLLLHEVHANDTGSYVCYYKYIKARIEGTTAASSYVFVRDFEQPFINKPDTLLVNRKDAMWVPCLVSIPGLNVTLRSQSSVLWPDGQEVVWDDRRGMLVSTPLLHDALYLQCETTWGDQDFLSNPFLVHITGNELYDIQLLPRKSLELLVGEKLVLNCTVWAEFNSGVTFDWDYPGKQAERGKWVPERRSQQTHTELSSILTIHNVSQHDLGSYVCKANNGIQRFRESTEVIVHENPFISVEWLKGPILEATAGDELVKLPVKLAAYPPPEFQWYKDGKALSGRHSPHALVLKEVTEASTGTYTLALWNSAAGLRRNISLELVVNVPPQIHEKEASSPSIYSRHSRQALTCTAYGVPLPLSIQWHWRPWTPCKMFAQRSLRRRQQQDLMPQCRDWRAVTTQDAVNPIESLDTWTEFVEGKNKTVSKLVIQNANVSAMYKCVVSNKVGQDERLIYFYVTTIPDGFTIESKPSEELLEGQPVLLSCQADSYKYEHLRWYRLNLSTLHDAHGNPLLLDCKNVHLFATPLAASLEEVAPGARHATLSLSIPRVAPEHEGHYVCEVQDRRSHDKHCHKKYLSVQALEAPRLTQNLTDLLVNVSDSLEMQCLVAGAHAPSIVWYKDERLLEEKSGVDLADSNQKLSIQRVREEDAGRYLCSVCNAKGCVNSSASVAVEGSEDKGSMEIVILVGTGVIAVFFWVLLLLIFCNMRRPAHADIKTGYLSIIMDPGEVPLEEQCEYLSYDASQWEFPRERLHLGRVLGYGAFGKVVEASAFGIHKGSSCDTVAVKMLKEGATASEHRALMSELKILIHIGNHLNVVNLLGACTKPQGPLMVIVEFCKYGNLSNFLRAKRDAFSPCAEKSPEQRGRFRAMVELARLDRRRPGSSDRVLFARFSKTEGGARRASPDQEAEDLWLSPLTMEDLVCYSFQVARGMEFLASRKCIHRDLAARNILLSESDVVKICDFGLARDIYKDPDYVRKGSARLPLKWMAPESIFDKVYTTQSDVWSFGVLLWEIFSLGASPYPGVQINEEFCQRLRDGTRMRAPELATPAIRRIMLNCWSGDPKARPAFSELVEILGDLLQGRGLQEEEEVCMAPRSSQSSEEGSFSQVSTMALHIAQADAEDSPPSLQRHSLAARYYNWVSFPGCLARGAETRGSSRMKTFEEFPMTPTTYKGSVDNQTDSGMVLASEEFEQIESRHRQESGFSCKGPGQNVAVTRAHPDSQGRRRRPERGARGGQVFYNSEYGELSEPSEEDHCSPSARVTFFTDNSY

VEGFR-1 [3] = target: T3, VEGFR-1 (Homo sapiens, UniProt P17948); experiment: 36-kinase panel, residual activity at […]; assay type: biochemical
T3 construct: gene FLT1
T3 sequence (P17948 27-1338): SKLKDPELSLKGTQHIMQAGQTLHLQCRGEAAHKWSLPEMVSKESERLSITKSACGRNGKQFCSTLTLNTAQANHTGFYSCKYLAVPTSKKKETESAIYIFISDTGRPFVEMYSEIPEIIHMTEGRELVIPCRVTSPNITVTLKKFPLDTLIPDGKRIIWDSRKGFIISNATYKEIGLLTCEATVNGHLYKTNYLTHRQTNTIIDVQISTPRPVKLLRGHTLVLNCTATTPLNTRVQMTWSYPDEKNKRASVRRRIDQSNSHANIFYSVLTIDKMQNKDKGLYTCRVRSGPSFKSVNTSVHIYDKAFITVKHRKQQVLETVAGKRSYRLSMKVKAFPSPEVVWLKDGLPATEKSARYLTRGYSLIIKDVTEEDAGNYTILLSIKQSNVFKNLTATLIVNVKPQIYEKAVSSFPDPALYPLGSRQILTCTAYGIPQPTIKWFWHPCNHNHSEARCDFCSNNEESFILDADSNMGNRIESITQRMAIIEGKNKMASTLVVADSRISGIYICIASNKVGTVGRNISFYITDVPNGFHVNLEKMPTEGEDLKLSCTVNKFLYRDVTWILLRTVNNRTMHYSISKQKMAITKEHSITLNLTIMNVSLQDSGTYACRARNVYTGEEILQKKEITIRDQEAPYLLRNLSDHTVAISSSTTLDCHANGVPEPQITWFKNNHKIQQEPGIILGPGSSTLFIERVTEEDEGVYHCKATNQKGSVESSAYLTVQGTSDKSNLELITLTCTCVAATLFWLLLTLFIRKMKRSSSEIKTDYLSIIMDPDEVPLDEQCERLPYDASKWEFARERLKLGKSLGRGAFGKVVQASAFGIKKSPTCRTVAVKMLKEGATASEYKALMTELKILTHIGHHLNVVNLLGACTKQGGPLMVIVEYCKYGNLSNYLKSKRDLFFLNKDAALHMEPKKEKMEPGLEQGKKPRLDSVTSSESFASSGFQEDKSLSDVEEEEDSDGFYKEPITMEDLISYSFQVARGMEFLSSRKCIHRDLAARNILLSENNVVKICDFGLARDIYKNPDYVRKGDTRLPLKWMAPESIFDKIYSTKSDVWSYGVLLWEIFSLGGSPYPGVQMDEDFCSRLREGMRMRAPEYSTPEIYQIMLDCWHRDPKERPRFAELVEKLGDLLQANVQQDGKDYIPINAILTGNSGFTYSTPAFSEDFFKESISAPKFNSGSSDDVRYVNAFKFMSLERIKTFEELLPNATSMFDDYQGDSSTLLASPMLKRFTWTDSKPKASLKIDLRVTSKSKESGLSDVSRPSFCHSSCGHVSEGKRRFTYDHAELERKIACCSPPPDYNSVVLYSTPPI

AKT2 [4] = target: T4, AKT2 (Homo sapiens, UniProt P31751); experiment: 36-kinase panel, residual activity at […]; assay type: biochemical
T4 sequence (P31751 whole entry): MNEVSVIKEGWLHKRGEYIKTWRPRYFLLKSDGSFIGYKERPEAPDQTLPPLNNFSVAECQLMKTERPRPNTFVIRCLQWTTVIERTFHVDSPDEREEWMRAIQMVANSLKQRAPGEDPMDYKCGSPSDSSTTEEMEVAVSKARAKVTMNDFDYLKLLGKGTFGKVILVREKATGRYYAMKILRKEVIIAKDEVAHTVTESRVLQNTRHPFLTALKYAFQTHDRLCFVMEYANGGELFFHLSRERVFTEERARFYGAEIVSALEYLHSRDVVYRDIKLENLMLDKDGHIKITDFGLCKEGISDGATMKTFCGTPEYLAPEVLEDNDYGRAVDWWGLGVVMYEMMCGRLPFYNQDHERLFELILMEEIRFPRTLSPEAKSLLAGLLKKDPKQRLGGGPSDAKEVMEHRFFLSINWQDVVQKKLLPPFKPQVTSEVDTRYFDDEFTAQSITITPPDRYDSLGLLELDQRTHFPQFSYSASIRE

CDK6/CycD1 = CDK6/CycD1 (Homo sapiens, UniProt Q00534); experiment: biochemical; parameters: protein kinase panel (36 kinases), residual activity at two concentrations, singlicate
CDK6/CycD1, sequence (Q00534 whole entry): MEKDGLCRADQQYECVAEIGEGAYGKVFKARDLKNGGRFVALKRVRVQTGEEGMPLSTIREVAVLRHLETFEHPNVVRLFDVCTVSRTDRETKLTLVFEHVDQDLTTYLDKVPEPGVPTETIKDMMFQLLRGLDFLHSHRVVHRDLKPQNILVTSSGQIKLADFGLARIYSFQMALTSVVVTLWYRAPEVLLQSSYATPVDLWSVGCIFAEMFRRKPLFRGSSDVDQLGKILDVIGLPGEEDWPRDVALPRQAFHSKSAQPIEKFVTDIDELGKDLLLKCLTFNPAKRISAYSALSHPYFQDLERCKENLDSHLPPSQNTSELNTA
CDK6/CycD1, sequence (P24385 whole entry partner): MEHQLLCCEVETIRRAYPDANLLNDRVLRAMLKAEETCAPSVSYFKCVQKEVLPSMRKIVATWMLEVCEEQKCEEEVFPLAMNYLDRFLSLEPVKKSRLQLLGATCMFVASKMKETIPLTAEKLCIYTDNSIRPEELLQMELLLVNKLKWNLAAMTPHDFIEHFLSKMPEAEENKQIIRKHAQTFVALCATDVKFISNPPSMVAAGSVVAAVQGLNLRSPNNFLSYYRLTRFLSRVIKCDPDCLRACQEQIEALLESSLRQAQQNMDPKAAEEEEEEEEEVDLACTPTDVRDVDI
Protocol: (§1) The kinase inhibition profile of Bozepinib was determined using a panel of 36 protein kinases (Supplementary Table S1). Residual activity values were measured by testing each compound at two concentrations (5×10^−5 M and 5×10^−6 M) in singlicate for each kinase assay. Detailed methods for kinome analyses are provided in Supplementary Materials and Methods. […] Each experiment was repeated three times. Kinase Inhibition Assays Bozepinib was dissolved in volumes of 100% DMSO to reach stock concentrations of 5×10^-3 M/100% DMSO and 5×10^-4 M/100% DMSO, respectively. In the process, the 5×10^-3 M/100% DMSO and 5×10^-4 M/100% DMSO solutions were diluted with water to 5×10^-4 M/10% DMSO and 5×10^-5 M/10% DMSO in a 96 well microtiter plate directly before use. For every kinase, 5 μl from each of the 5×10^-4 M/10% DMSO and 5×10^-5 M/10% DMSO compound solutions were transferred into the assay plates. The To study the effect of Bozepinib on cancer proliferation pathways, we carried out an ex vivo multikinase screening assay (n=36) using 5μM and 50μM (Supplementary Table S3). […] In order to analyze whether Bozepinib inhibits the HER2 signaling pathways in breast cancer cells, we treated the HER2 positive SKBR-3 cell line with 5 μM of Bozepinib and we analyzed the expression and activation of proteins involved in HER2 signaling at different times post-treatment by western blot analysis (Fig. 1A). […] Moreover, we also detected both the inhibition of ERKs and JNK phosphorylation in MCF-7 and MDA-MB 468 breast cancer cell lines, that was more notable in MCF-7 cells at 4 hours post-treatment and in MDA-MB 468 cell line after 8 hours post-treatment (Fig. 1B and 1C).

JNK2 = target: T5, JNK2 (Homo sapiens, UniProt P45984); experiment: biochemical; parameters: protein kinase panel (36 kinases), residual activity at two concentrations, singlicate
T5 construct: gene MAPK9
Protocol: as §1

VEGFR-2 [5] = target: T6, VEGFR-2 (Homo sapiens, UniProt P35968); experiment: biochemical; parameters: protein kinase panel (36 kinases), residual activity at two concentrations, singlicate
T6 construct: gene KDR
Protocol: as §1

CDK9/CycT = CDK9/CycT (Homo sapiens, UniProt P50750); experiment: biochemical; parameters: protein kinase panel (36 kinases), residual activity at two concentrations, singlicate
Protocol: as §1

CDK7/CycH/MAT1 = CDK7/CycH/MAT1 (Homo sapiens, UniProt P50613); experiment: biochemical; parameters: protein kinase panel (36 kinases), residual activity at two concentrations, singlicate
Protocol: as §1

EGFR = EGFR (Homo sapiens, UniProt P00533); experiment: biochemical; parameters: protein kinase panel (36 kinases), residual activity at two concentrations, singlicate
Protocol: as §1

AKT1 = AKT1 (Homo sapiens, UniProt P31749); experiment: biochemical; parameters: protein kinase panel (36 kinases), residual activity at two concentrations, singlicate
Protocol: as §1

AKT3 = AKT3 (Homo sapiens, UniProt Q9Y243); experiment: biochemical; parameters: protein kinase panel (36 kinases), residual activity at two concentrations, singlicate
Protocol: as §1

PDK1 = target: T7, PDK1 (Homo sapiens, UniProt O15530); experiment: biochemical; parameters: protein kinase panel (36 kinases), residual activity at two concentrations, singlicate
T7 construct: gene PDPK1
Protocol: as §1

JNK3 = target: T8, JNK3 (Homo sapiens, UniProt P53779); experiment: biochemical; parameters: protein kinase panel (36 kinases), residual activity at two concentrations, singlicate
T8 construct: gene MAPK10
Protocol: as §1

AKT2 [6] = target: T4, AKT2; experiment: biochemical; parameters: protein kinase panel (36 kinases), residual activity at two concentrations, singlicate
Protocol: as §1

VEGFR-1 [7] = target: T3, VEGFR-1; experiment: biochemical; parameters: protein kinase panel (36 kinases), residual activity at two concentrations, singlicate
Protocol: as §1

STK33 = STK33 (Homo sapiens, UniProt Q9BYT3); experiment: biochemical; parameters: protein kinase panel (36 kinases), residual activity at two concentrations, singlicate
Protocol: as §1

IKK-epsilon = target: T9, IKK-epsilon (Homo sapiens, UniProt Q14164); experiment: biochemical; parameters: protein kinase panel (36 kinases), residual activity at two concentrations, singlicate
T9 construct: gene IKBKE
Protocol: as §1

IKK-beta = target: T10, IKK-beta (Homo sapiens, UniProt O14920); experiment: biochemical; parameters: protein kinase panel (36 kinases), residual activity at two concentrations, singlicate
T10 construct: gene IKBKB
Protocol: as §1

RET = RET (Homo sapiens, UniProt P07949); experiment: biochemical; parameters: protein kinase panel (36 kinases), residual activity at two concentrations, singlicate
Protocol: as §1

ERK2 = target: T11, ERK2 (Homo sapiens, UniProt P28482); experiment: biochemical; parameters: protein kinase panel (36 kinases), residual activity at two concentrations, singlicate
T11 construct: gene MAPK1
Protocol: as §1

PKC-alpha = target: T12, PKC-alpha (Homo sapiens, UniProt P17252); experiment: biochemical; parameters: protein kinase panel (36 kinases), residual activity at two concentrations, singlicate
T12 construct: gene PRKCA
Protocol: as §1

IKK- alpha = target: T13, IKK- alpha (Homo sapiens, UniProt O15111); experiment: biochemical; parameters: protein kinase panel (36 kinases), residual activity at two concentrations, singlicate
T13 construct: gene CHUK
Protocol: as §1

JNK1 = target: T14, JNK1 (Homo sapiens, UniProt P45983); experiment: biochemical; parameters: protein kinase panel (36 kinases), residual activity at two concentrations, singlicate
T14 construct: gene MAPK8
Protocol: as §1

P38-alpha = target: T15, P38-alpha (Homo sapiens, UniProt Q16539); experiment: biochemical; parameters: protein kinase panel (36 kinases), residual activity at two concentrations, singlicate
T15 construct: gene MAPK14
Protocol: as §1

HER2 [8] = target: T1, HER2; experiment: biochemical; parameters: protein kinase panel (36 kinases), residual activity at two concentrations, singlicate
Protocol: as §1

VEGFR-3 [9] = target: T2, VEGFR-3; experiment: biochemical; parameters: protein kinase panel (36 kinases), residual activity at two concentrations, singlicate
Protocol: as §1

STK23 = target: T16, STK23 (Homo sapiens, UniProt Q9UPE1); experiment: biochemical; parameters: protein kinase panel (36 kinases), residual activity at two concentrations, singlicate
T16 construct: gene SRPK3
Protocol: as §1

CDK8/CycC = CDK8/CycC (Homo sapiens, UniProt P49336); experiment: biochemical; parameters: protein kinase panel (36 kinases), residual activity at two concentrations, singlicate
Protocol: as §1

JAK3 = JAK3 (Homo sapiens, UniProt P52333); experiment: biochemical; parameters: protein kinase panel (36 kinases), residual activity at two concentrations, singlicate
Protocol: as §1

VEGFR-2 [10] = target: T6, VEGFR-2; experiment: 36-kinase panel, residual activity at […]; assay type: biochemical
[11] = read-out: Bozepinib 5 µM, residual activity %
[12] = read-out: Bozepinib 50 µM, residual activity %

T1 sequence (P04626 23-1255): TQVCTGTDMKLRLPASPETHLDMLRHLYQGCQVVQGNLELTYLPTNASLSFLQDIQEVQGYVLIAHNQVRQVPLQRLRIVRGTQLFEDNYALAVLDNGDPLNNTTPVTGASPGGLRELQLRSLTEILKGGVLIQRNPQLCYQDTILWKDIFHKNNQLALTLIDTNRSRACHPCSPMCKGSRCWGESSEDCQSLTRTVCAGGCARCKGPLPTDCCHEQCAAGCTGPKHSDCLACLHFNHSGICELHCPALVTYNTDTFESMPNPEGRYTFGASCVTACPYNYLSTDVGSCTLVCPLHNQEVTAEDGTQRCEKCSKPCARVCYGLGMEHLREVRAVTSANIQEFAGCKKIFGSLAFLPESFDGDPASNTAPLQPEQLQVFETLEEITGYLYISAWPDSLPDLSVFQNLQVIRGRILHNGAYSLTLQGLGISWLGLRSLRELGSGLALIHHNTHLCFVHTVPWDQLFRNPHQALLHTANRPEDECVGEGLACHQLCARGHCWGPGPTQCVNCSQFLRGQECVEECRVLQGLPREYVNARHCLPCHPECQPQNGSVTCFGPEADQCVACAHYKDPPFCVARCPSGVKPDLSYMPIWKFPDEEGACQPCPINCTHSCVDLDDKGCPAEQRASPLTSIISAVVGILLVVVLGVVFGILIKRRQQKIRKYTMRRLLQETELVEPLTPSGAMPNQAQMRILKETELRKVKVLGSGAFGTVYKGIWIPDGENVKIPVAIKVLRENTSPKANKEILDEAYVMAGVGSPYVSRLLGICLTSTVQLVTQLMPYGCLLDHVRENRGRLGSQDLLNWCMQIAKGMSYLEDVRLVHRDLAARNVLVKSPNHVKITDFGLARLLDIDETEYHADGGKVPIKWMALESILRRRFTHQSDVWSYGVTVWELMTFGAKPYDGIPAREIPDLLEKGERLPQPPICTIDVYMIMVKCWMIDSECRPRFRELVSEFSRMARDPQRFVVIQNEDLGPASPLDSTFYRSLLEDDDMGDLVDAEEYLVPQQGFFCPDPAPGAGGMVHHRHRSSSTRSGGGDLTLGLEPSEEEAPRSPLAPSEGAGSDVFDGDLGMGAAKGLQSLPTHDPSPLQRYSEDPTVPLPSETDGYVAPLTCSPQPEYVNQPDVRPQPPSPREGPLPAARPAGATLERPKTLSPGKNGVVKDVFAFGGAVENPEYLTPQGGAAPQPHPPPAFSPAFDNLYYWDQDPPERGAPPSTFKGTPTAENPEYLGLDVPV

Structure (SMILES): O=[N+]([O-])c1ccc(S(=O)(=O)N2CC(n3cnc4c(Cl)nc(Cl)nc43)OCc3ccccc32)cc1 (racemic) [Bozepinib, (RS)-2,6-dichloro-9-[1-(p-nitrobenzenesulfonyl)-1,2,3,5-tetrahydro-4,1-benzoxazepin-3-yl]-9H-purine]
- 36-kinase panel, residual activity at 5 and 50 μM; p-HER2 loss in SKBR-3 cells b (HER2 [1]): HER2, AKT2 and VEGF receptors were considerably inhibited in the screening (Supplementary Table S3)
- 36-kinase panel, residual activity at 5 and 50 μM (VEGFR-3 [2]): showed inhibitory effects against VEGFR-1, VEGFR-2 and VEGFR-3 in the kinome assay
- 36-kinase panel, residual activity at 5 and 50 μM (VEGFR-1 [3]): showed inhibitory effects against VEGFR-1, VEGFR-2 and VEGFR-3 in the kinome assay
- 36-kinase panel, residual activity at 5 and 50 μM (AKT2 [4]): HER2, AKT2 and VEGF receptors were considerably inhibited in the screening (Supplementary Table S3)
- remaining activity at 5 µM (CDK6/CycD1; [11]): 95%
- remaining activity at 50 µM (CDK6/CycD1; [12]): 64%
- remaining activity at 5 µM (JNK2; [11]): 77%
- remaining activity at 50 µM (JNK2; [12]): 37%
- remaining activity at 5 µM (VEGFR-2 [5]; [11]): 82%
- remaining activity at 50 µM (VEGFR-2 [5]; [12]): 13%
- remaining activity at 5 µM (CDK9/CycT; [11]): 102%
- remaining activity at 50 µM (CDK9/CycT; [12]): 69%
- remaining activity at 5 µM (CDK7/CycH/MAT1; [11]): 96%
- remaining activity at 50 µM (CDK7/CycH/MAT1; [12]): 69%
- remaining activity at 5 µM (EGFR; [11]): 84%
- remaining activity at 50 µM (EGFR; [12]): 17%
- remaining activity at 5 µM (AKT1; [11]): 96%
- remaining activity at 50 µM (AKT1; [12]): 78%
- remaining activity at 5 µM (AKT3; [11]): 98%
- remaining activity at 50 µM (AKT3; [12]): 88%
- remaining activity at 5 µM (PDK1; [11]): 41%
- remaining activity at 50 µM (PDK1; [12]): 27%
- remaining activity at 5 µM (JNK3; [11]): 81%
- remaining activity at 50 µM (JNK3; [12]): 43%
- remaining activity at 5 µM (AKT2 [6]; [11]): 100%
- remaining activity at 50 µM (AKT2 [6]; [12]): 43%
- remaining activity at 5 µM (VEGFR-1 [7]; [11]): 91%
- remaining activity at 50 µM (VEGFR-1 [7]; [12]): 18%
- remaining activity at 5 µM (STK33; [11]): 102%
- remaining activity at 50 µM (STK33; [12]): 72%
- remaining activity at 5 µM (IKK-epsilon; [11]): 113%
- remaining activity at 50 µM (IKK-epsilon; [12]): 71%
- remaining activity at 5 µM (IKK-beta; [11]): 113%
- remaining activity at 50 µM (IKK-beta; [12]): 78%
- remaining activity at 5 µM (RET; [11]): 79%
- remaining activity at 50 µM (RET; [12]): 14%
- remaining activity at 5 µM (ERK2; [11]): 104%
- remaining activity at 50 µM (ERK2; [12]): 50%
- remaining activity at 5 µM (PKC-alpha; [11]): 86%
- remaining activity at 50 µM (PKC-alpha; [12]): 24%
- remaining activity at 5 µM (IKK- alpha; [11]): 104%
- remaining activity at 50 µM (IKK- alpha; [12]): 51%
- remaining activity at 5 µM (JNK1; [11]): 45%
- remaining activity at 50 µM (JNK1; [12]): 29%
- remaining activity at 5 µM (P38-alpha; [11]): 115%
- remaining activity at 50 µM (P38-alpha; [12]): 57%
- remaining activity at 5 µM (HER2 [8]; [11]): 101%
- remaining activity at 50 µM (HER2 [8]; [12]): 25%
- remaining activity at 5 µM (VEGFR-3 [9]; [11]): 84%
- remaining activity at 50 µM (VEGFR-3 [9]; [12]): 13%
- remaining activity at 5 µM (STK23; [11]): 95%
- remaining activity at 50 µM (STK23; [12]): 89%
- remaining activity at 5 µM (CDK8/CycC; [11]): 109%
- remaining activity at 50 µM (CDK8/CycC; [12]): 72%
- remaining activity at 5 µM (JAK3; [11]): 94%
- remaining activity at 50 µM (JAK3; [12]): 43%
- 36-kinase panel, residual activity at 5 and 50 μM (VEGFR-2 [10]): showed inhibitory effects against VEGFR-1, VEGFR-2 and VEGFR-3 in the kinome assay
